Assays:
Type in all cases: in vivo
[1] = tested on: Myzus persicae; test: Myzus persicae spray test; conditions: foliar, 120 h, application rate 100 g/ha, Chinese cabbage leaf discs, after 5 days, read-out: efficacy
Protocol: (§1) [table] To produce a suitable active ingredient formulation, 1 part by weight of active ingredient is dissolved with the specified parts by weight of solvent and made up to the desired concentration with water containing an emulsifier concentration of 1000 ppm. To produce further test concentrations, the formulation is diluted with emulsifier-containing water. Discs of Chinese cabbage leaves (Brassica pekinensis) infested by all stages of the green peach aphid (Myzus persicae) are sprayed with an active ingredient formulation of the desired concentration. After 5 days, the efficacy in % is determined. 100% means that all the aphids have been killed; 0% means that no aphids have been killed.

[2] = tested on: Tetranychus urticae; test: Tetranychus urticae spray test, OP-resistant; conditions: foliar, 144 h, application rate 100 g/ha, bean leaf discs, after 6 days, read-out: efficacy
Protocol: [table] To produce a suitable active ingredient formulation, 1 part by weight of active ingredient is dissolved with the specified parts by weight of solvent and made up to the desired concentration with water containing an emulsifier concentration of 1000 ppm. To produce further test concentrations, the formulation is diluted with emulsifier-containing water. Discs of bean leaves (Phaseolus vulgaris) infested with all stages of the greenhouse red spider mite (Tetranychus urticae) are sprayed with an active ingredient formulation of the desired concentration. After 6 days, the efficacy in % is determined. 100% means that all the spider mites have been killed; 0% means that no spider mites have been killed.

[3] = tested on: Myzus persicae; test: Myzus persicae oral test; conditions: 120 h, application rate 4 ppm, after 5 days, read-out: efficacy
Protocol: [table] To produce a suitable active ingredient formulation, 1 part by weight of active ingredient is dissolved with the stated parts by weight of solvent and made up to the desired concentration with water. 50 μl of the active ingredient formulation are transferred into microtitre plates and made up to a final volume of 200 μl with 150 μl of IPL41 insect medium (33%+15% sugar). Subsequently, the plates are sealed with parafilm, which a mixed population of green peach aphids (Myzus persicae) within a second microtitre plate is able to puncture and imbibe the solution. After 5 days, the efficacy in % is determined. 100% means that all the aphids have been killed; 0% means that no aphids have been killed.

[4] = tested on: Lucilia cuprina; test: Lucilia cuprina test; conditions: 48 h, application rate 100 ppm, L1 larvae, kill after 2 days, read-out: efficacy
Protocol: Solvent: dimethyl sulfoxide To produce a suitable active ingredient formulation, 10 mg of active ingredient are mixed with 0.5 ml of dimethyl sulfoxide, and the concentrate is diluted with water to the desired concentration. About 20 L1 larvae of the Australian sheep blowfly (Lucilia cuprina) are transferred into a test vessel containing minced horsemeat and the active ingredient formulation of the desired concentration. After 2 days, the kill in % is determined. 100% means that all the larvae have been killed; 0% means that no larvae have been killed.

[5] = tested on: Phaedon cochleariae; test: Phaedon cochleariae spray test; conditions: 168 h, application rate 100 g/ha, larvae, after 7 days, read-out: efficacy
Protocol: as §1, with “pekinensis)” for “pekinensis) infested by all stages of the green peach aphid (Myzus persicae)”, “concentration and, after drying, populated with larvae of the mustard beetle (Phaedon cochleariae).” for “concentration.”, “7” for “5”, “beetle larvae” for “aphids”

[6] = tested on: Spodoptera frugiperda; test: Spodoptera frugiperda spray test; conditions: foliar, 168 h, application rate 100 g/ha, maize leaf discs, caterpillars, after 7 days, read-out: efficacy
Protocol: [table] To produce a suitable active ingredient formulation, 1 part by weight of active ingredient is dissolved with the specified parts by weight of solvent and made up to the desired concentration with water containing an emulsifier concentration of 1000 ppm. To produce further test concentrations, the formulation is diluted with emulsifier-containing water. Leaf discs of maize (Zea mays) are sprayed with an active ingredient formulation of the desired concentration and, after drying, populated with caterpillars of the fall armyworm (Spodoptera frugiperda). After 7 days, the efficacy in % is determined. 100% means that all the caterpillars have been killed; 0% means that no caterpillar has been killed.

[7] = tested on: Ctenocephalides felis; test: Ctenocephalides felis oral test; conditions: 48 h, application rate 100 ppm in citrated cattle blood, kill after 2 days, read-out: efficacy
Protocol: Solvent: dimethyl sulfoxide To produce a suitable active ingredient formulation, 10 mg of active ingredient are mixed with 0.5 ml of dimethyl sulfoxide. Dilution with citrated cattle blood gives the desired concentration. About 20 unfed adult cat fleas (Ctenocephalides felis) are placed into a chamber which is closed at the top and bottom with gauze. A metal cylinder whose bottom end is closed with parafilm is placed onto the chamber. The cylinder contains the blood/active ingredient formulation, which can be imbibed by the fleas through the parafilm membrane. After 2 days, the kill in % is determined. 100% means that all of the fleas have been killed; 0% means that none of the fleas have been killed.

| SMILES | pest or weed control at 100 g/ha [1] | pest or weed control at 100 g/ha [2] | pest or weed control at 4 ppm [3] | pest or weed control at 100 ppm [4] | pest or weed control at 100 g/ha [5] | pest or weed control at 100 g/ha [6] | pest or weed control at 100 ppm [7] |
| --- | --- | --- | --- | --- | --- | --- | --- |
| CCS(=O)(=O)c1c(-c2nc3cc(C(F)(F)F)ncc3n2C)nc(-c2cccc(C(C)(C)C#N)c2)n1C [Example I-075] | 90% | 90% | 100% |  |  |  |  |
| CCS(=O)(=O)c1c(-c2nc3cc(C(F)(F)F)ncc3n2C)nc(-c2ccccc2)n1C(C)C [Example I-012] | 90% |  | 100% | 100% |  |  |  |
| CCS(=O)(=O)c1c(-n2cc3ncc(C(F)(F)F)cc3n2)nc(-c2ccccc2)n1C [Example I-096] | 90% |  | 90% |  | 100% | 83% |  |
| CCS(=O)(=O)c1c(-c2nc3cc(C(F)(F)F)ncc3n2C)nc(-c2ccn(C)n2)n1C [Example I-060] | 100% |  | 100% |  | 100% | 83% |  |
| CCS(=O)(=O)c1c(-c2nc3cc(C(F)(F)F)ncc3n2C)nc(-c2ccc(C#N)n2C)n1C [Example I-054] |  | 100% | 90% |  |  |  |  |
| CCS(=O)(=O)c1c(-c2nc3cc(C(F)(F)F)ncc3n2C)nc(C(N)=S)n1C [Example I-046, 5-(Ethylsulfonyl)-1-methyl-4-[3-methyl-6-(trifluoromethyl)-3H-imidazo[4,5-c]pyridin-2-yl]-1H-imidazole-2-carbothioamide] |  |  | 100% | 95% | 100% |  |  |
| CCS(=O)(=O)c1c(-c2nc3cc(C(F)(F)F)ncc3n2C)nc(-c2ccc(Cl)s2)n1C [Example I-057] | 90% |  | 100% |  | 100% | 67% |  |
| CCS(=O)(=O)c1c(-c2nc3cc(C(F)(F)F)ncc3n2C)nc(C(=O)NC)n1C [Example I-039] | 100% |  | 100% |  |  |  | 100% |
| CCS(=O)(=O)c1c(-c2nc3cc(C(F)(F)F)ncc3n2C)nc(Cl)n1C(C)C [Example I-025] |  |  | 100% |  |  | 100% | 80% |
| CCS(=O)(=O)c1c(-c2nc3cc(C(F)(F)F)ncc3n2C)nc(-c2ccsc2)n1C [Example I-043] | 90% |  | 100% | 100% |  |  |  |
| CCS(=O)(=O)c1c(-c2nc3cc(C(F)(F)F)ncc3n2C)nc(C2=CCC(C)CC2)n1C (stereo not drawn) [Example I-074] | 90% | 90% |  |  |  |  |  |
| CCS(=O)(=O)c1c(-c2nc3cc(C(F)(F)F)ncc3n2C)nc(-c2ccnnc2)n1C [Example I-030] | 100% |  | 100% | 100% |  |  |  |
| CCS(=O)(=O)c1c(-c2nc3cc(C(F)(F)F)ncc3n2C)ncn1C [Example I-029, 2-[5-(Ethylsulfonyl)-1-methyl-1H-imidazol-4-yl]-3-methyl-6-(trifluoromethyl)-3H-imidazo[4,5-c]pyridine] | 70% |  | 100% | 95% | 100% |  | 95% |

Source: patent US11083199B2, “Heterocycle derivatives as pesticides” (Bayer Aktiengesellschaft, priority 2017, dated 2021)
